Results published in PMC4949516 (Chemmedchem, 2016).

Tests used:
PKA catalytic subunit = biological target: T1, PKA catalytic subunit (Bos taurus, UniProt P00517); experiment: fluorescence polarisation competition with compound […]; format: binding
T1 construct: gene PRKACA; native catalytic subunit purified from bovine heart PKA (P5511) by column chromatography

[1] = biological target: T2, PKA (cAMP-dependent protein kinase), semi-pure tetramer (Bos taurus, UniProt P00517); experiment: fluorescence polarisation saturation binding, one-site fit; settings: read-out: binding constant
T2 construct: gene PRKACA; native, semi-pure from bovine heart; whole tetramer of two catalytic and two regulatory subunits; with cAMP-dependent protein kinase type II-alpha regulatory subunit

| SMILES | IC50 (PKA catalytic subunit) | Kd [1] |
| --- | --- | --- |
| CC1CNCCN1S(=O)(=O)c1cccc2cnccc12 (centres unmarked) [H‐7] | 3900 nM |  |
| CO[C@@H]1[C@H](N(C)CC(=O)NCCNC(=O)CCC(=O)NCCOCCOCCNC(=S)Nc2ccc(-c3c4ccc(=O)cc-4oc4cc(O)ccc34)c(C(=O)O)c2)C[C@H]2O[C@]1(C)n1c3ccccc3c3c4c(c5c6ccccc6n2c5c31)C(=O)NC4 [compound 8, 2‐(6‐Hydroxy‐3‐oxo‐3H‐xanthen‐9‐yl)‐5‐(3‐(2‐((5R,7R,8R,9S)‐8‐methoxy‐9‐methyl‐16‐oxo‐6,7,8,9,15,16‐hexahydro‐5H,14H‐17‐oxa‐4b,9a,15‐triaza‐5,9‐methanodibenzo[b,h]cyclonona[jkl]‐cyclopenta[e]‐as‐indacen‐7‐yl)‐4,9,12‐trioxo‐16,19‐dioxa‐2,5,8,13‐tetraazahenicosan‐21‐yl)thioureido)benzoic acid] |  | 44 nM |
